Data: patent US4454158A, “Allyl amine MAO inhibitors” (Merrell Toraude et Compagnie, priority 1981, dated 1984)
Read-outs that look alike come from different tables or passages of the source. Each block holds one compound with its values, some of them ahead of it.

Key:
MAO-A and MAO-B = details: literature; cited from earlier work
MAO [1] = assay: Inhibition of MAO - In vitro (14C p-tyramine substrate, partially purified rat brain mitochondria); assay type: biochemical; details: tested as hydrochloride salt, read-out: IC50 (MAO inhibitory activity - In vitro)
Excerpt: (A) The ability of a compound of Formula I or II to inhibit MAO can be determined in vitro by the method of A. Christmas et al, Br. J. Pharmacol. 45, 490 (1972) in partially purified mitochondria from rat brain using ^14 C p-tyramine as the substrate.

MAO-B versus MAO-A = assay: Selectivity of MAO inhibitors - In vitro (14C 5-hydroxytryptamine for MAO-A, 14C phenethylamine for MAO-B); assay type: biochemical, rat; details: for Selectivity (ratio of inhibitory activity against MAO-B versus MAO-A): in vitro, rat brain mitochondria
Method: Mitochondria are prepared from rat brain by homogenation in phosphate buffer (0.1 M, pH 7.2) followed by differential centrifugation. The mitochondria are suspended in the same buffer, the test compound is added at the desired concentration, and the system is incubated. […] Christmas, et al, supra).
Selectivity is expressed as the ratio of the inhibitory activity against MAO-B versus the inhibitory activity against MAO-A.

MAO [2] = assay: Inhibition of MAO - Ex vivo, rat (14C p-tyramine substrate); assay type: in vivo; details: for % Inhibition of MAO - Brain: 18 hr; for % Inhibition of MAO - Duodenum / % Inhibition of MAO - Heart / % Inhibition of MAO - Liver: 2 hr
Method: The ability of a compound of Formula I or II to inhibit MAO can be determined ex vivo by the following procedure:
The test compound is administered intraperitoneally (ip), intravenously (iv), or orally (po) to rats or mice and the animals are killed at various times after treatment. […] MAO activity is determined in the homogenates using ^14 C p-tyramine, as the substrate. […] Selectivity can be determined by repeating the above-described test using either ^14 C 5-hydroxytryptamine (for MAO-A) or ^14 C phenethylamine (for MAO-B) as the substrate for determining the % inhibition

MAO [3] = assay: Inhibition of MAO - In vivo: change in levels of endogenous MAO substrates and metabolites in mouse brain; parameters: species or system mice; details: 16 hr
Method: The ability of a compound of Formula I or II to inhibit MAO can be determined in vivo in mice according to the following procedure, wherein changes in concentration of the endogenous MAO substrates and the metabolites thereof are assayed.
Mice are given an intraperitoneal injection of the test compound and 2 hours or 16 hours later the animals are killed. The levels of dopamine, dihydroxyphenylacetic acid (DOPAC), 5-hydroxytryptamine (5-HT), and 5-hydroxyindole-3-acetic acid (5-HIAA) in brain homogenates are determined by the method of J. Wagner et al, J. Chromatog. 164, 41 (1979) and P. Bey et al, Br. J. Pharmac., 70, 571 (1980).

[4] = tested on: heart rate response to p-tyramine; assay: Cheese effect: potentiation of heart-rate response to p-tyramine in rats; details: rat; for Potentiation of heart-rate response to p-tyramine: dose 1.0 (iv)
Method: The following test procedure can be employed to assess the potential of a compound of Formula I or II for producing the "cheese effect":
Rats are administered an intravenous injection of the test compound at various dosage levels, and 30 minutes later the rats are challenged with several intravenous or intraduodenal dodes of p-tyramine. The heart rate response is measured.

Compound: N[C@@H]1C[C@H]1c1ccccc1 (relative stereo) [tranyclcypromine]
preferential inhibition of MAO-A or MAO-B (in words) (MAO-A and MAO-B): not preferential in their action upon MAO

IC50 (MAO [1]): 250 nM
Compound: C=C(CN)c1cccc(O)c1 [2-(3-hydroxy)phenylallylamine, 2-(3'-Hydroxy)phenylallylamine]

IC50 (MAO [1]): 10000 nM
Compound: C=C(CN)c1cccc(OC)c1 [2-(3-methoxy)phenylallylamine, 2-(3'-Methoxy)phenylallylamine]

IC50 (MAO [1]): 500000 nM
Compound: NCC(=C(Br)Br)c1ccccc1 [2-phenyl-3,3-dibromoallylamine, 2-Phenyl-3,3-dibromoallylamine]

IC50 (MAO [1]): 10000 nM
Compound: NCC(=C(F)F)c1ccccc1 [2-phenyl-3,3-difluoroallylamine, 2-Phenyl-3,3-difluoroallylamine]

IC50 (MAO [1]): 40000 nM
Compound: NCC(=CBr)c1ccccc1 [2-phenyl-3-bromoallylamine, 2-Phenyl-3-bromoallylamine]

Compound: C=C(CN)c1ccccc1 [2-phenylallylamine, 2-Phenylallylamine]
IC50 (MAO [1]): 400000 nM

IC50 (MAO [1]): 2500 nM
Compound: COc1ccccc1/C(=C\F)CN [(E)-2-(2'-Methoxy)phenyl-3-fluoroallylamine]

IC50 (MAO [1]): 2500 nM
Compound: COc1ccc(/C(=C\F)CN)cc1OC [(E)-2-(3',4'-Dimethoxy)phenyl-3-fluoroallylamine]
selectivity for MAO-B as compared to MAO-A (in words) (MAO-B versus MAO-A): marked selectivity for MAO-B as compared to MAO-A
Selectivity (ratio of inhibitory activity against MAO-B versus MAO-A) (MAO-B versus MAO-A): 1000
selectivity for MAO-B as compared to MAO-A (in words) (MAO-B versus MAO-A; listed as (E)-2-(3',4'-dimethoxyphenyl)-3-fluoroallylamine): selective inhibitors of MAO-B
% Inhibition of MAO - Brain (MAO [2]; 0.5 mg/kg po): 79%
% Inhibition of MAO - Duodenum (MAO [2]; 1.0 mg/kg iv): 40%
% Inhibition of MAO - Heart (MAO [2]; 1.0 mg/kg iv): 17%
% Inhibition of MAO - Liver (MAO [2]; 1.0 mg/kg iv): 58%
% Inhibition of MAO - Brain (MAO [2]; 10.0 mg/kg po): 93%
% Change (compared to control) - 5-HIAA (MAO [3]; 10 mg/kg ip): -8%
% Change (compared to control) - 5-HT (MAO [3]; 10 mg/kg ip): +31%
% Change (compared to control) - DOPAC (MAO [3]; 10 mg/kg ip): -62%
% Change (compared to control) - Dopamine (MAO [3]; 10 mg/kg ip): +18%
% Change (compared to control) - 5-HIAA (MAO [3]; 50 mg/kg ip): -32%
% Change (compared to control) - 5-HT (MAO [3]; 50 mg/kg ip): +122%
% Change (compared to control) - DOPAC (MAO [3]; 50 mg/kg ip): -85%
% Change (compared to control) - Dopamine (MAO [3]; 50 mg/kg ip): +22%
Potentiation of heart-rate response to p-tyramine ([4]; p-tyramine i.d.): 2.5 fold
Potentiation of heart-rate response to p-tyramine ([4]; p-tyramine i.v.): 2.3 fold
risk of producing the cheese effect (in words) ([4]; in vivo): significantly decreased risk

IC50 (MAO [1]): 5 nM
Compound: COc1cccc(/C(=C\F)CN)c1 [(E)-2-(3'-Methoxy)phenyl-3-fluoroallylamine]
Selectivity (ratio of inhibitory activity against MAO-B versus MAO-A) (MAO-B versus MAO-A): 4
% Inhibition of MAO - Duodenum (MAO [2]; 0.1 mg/kg iv): 90%
% Inhibition of MAO - Heart (MAO [2]; 0.1 mg/kg iv): 98%
% Inhibition of MAO - Liver (MAO [2]; 0.1 mg/kg iv): 70%

IC50 (MAO [1]): 50 nM
Compound: NC/C(=C/F)c1cccc(O)c1 [(E)-2-(3'-hydroxy)phenyl-3-fluoroallylamine]

IC50 (MAO [1]): 7 nM
Compound: NC/C(=C/F)c1cccc(C(F)(F)F)c1 [(E)-2-(3'-trifluoromethyl)phenyl-3-fluoroallylamine]
